Here are results for three compounds from publication PMC11873650 (Acta Pharmaceutica Sinica. B, 2024).

A word on the IC50: it is the concentration needed to halve the response being measured. For orientation: AUC(0-t) means exposure summed from dosing to a finite time, without extrapolation to infinity.

For data set [1], the target named is phosphorylated PAK4 (p-PAK4) (Homo sapiens, UniProt O96013). The experiment in a line: Western blot of PAK4 phosphorylation in MIA PaCa-2 cells. The format is cell-based. The settings on record: for level of p-PAK4: MIA PaCa-2 cells, 1 μmol/L, 72 h. In general terms: In western blotting, separated proteins are transferred to a membrane and probed.
Chain of phosphorylated PAK4 (p-PAK4) (O96013 whole entry): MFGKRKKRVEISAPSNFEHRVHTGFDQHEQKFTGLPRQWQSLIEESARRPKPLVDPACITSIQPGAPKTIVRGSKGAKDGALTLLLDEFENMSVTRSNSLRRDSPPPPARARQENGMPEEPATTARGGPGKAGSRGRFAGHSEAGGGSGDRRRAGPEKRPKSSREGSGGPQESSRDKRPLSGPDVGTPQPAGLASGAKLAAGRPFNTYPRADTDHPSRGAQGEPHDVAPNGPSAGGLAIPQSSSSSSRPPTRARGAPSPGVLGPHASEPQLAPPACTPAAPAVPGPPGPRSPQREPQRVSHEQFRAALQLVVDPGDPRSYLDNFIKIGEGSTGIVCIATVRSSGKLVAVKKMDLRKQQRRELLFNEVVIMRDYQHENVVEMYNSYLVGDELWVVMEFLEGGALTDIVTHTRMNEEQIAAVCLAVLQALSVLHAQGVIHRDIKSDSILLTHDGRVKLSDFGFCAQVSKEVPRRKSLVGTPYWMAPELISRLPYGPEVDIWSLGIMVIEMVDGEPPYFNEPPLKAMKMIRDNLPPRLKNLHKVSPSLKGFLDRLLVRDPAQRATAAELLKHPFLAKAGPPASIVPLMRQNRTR
A further data set can be described thus: Pharmacokinetics in rats. The format is in vivo. Conditions: rat, plasma.
Data set [2] has as its system phosphorylated β-Catenin (p-β-Catenin). The experiment in a line: Western blot of β-Catenin phosphorylation in MIA PaCa-2 cells. The class given is cell-based, human. The settings on record: for level of p-β-Catenin: MIA PaCa-2 cells, 1 μmol/L, 72 h.
For the next data set, the system named is MIA PaCa-2 xenograft. Conditions: 100 mg/kg q.d. intraperitoneally.
In a further data set the test system is Pan02 allograft. The experiment in a line: Pan02 syngeneic model. The format is in vivo, C57BL/6 mice. Conditions: 100 mg/kg intraperitoneally three times per five days, 26 days.

For `Nc1ccc(/C=C/C(=O)NCc2cc3cc(-c4ccc(C(=O)N5CCC(F)(F)CC5)cc4)cc(-c4ccc(F)cc4)c3o2)cn1` [Compound 4], the half-inhibitory concentration (IC50) in data set [1] was 1890 nM; in data set [2] (Homo sapiens, MIA PaCa-2, 72 h, read-out: IC50 against p-β-Catenin), 2070 nM. Besides, the exposure AUC(0-t) in “Pharmacokinetics in rats” (iv, 1 mg/kg) came out at 94400 ng·h/mL; in the data set “Pharmacokinetics in rats” (po, 3 mg/kg), 55500 ng·h/mL. Also, the mortality entry in the data set on MIA PaCa-2 xenograft (20-day study) was “two mice”. Moreover, in the data set with MIA PaCa-2 xenograft (20 days), the “tumor growth inhibition rate (TGI)” value worked out at 77.8%. Further, the tumor growth inhibition result in the data set on Pan02 allograft is “modest tumor growth inhibition”.
As for `Nc1ccc(/C=C/C(=O)N2CCc3c(oc4c(-c5ccc(F)cc5)cc(-c5ccc(C(=O)N6CCC(F)(F)CC6)nn5)cc34)C2)cn1` [Compound 18, (E)-3-(6-Aminopyridin-3-yl)-1-(6-(6-(4,4-difluoropiperidine-1-carbonyl)pyridazin-3-yl)-8-(4-fluorophenyl)-3,4-dihydrobenzofuro[2,3-c]pyridin-2(1H)-yl)prop-2-en-1-one], the “level of p-PAK4” value in data set [1] was “superior to 4”. In addition, the “level of p-β-Catenin” value in data set [2] is “superior to 4”.
On to `Nc1ccc(/C=C/C(=O)N2CCc3c(oc4c(-c5ccc(F)cc5)cc(-c5ccc(C(=O)N6CCOCC6)nn5)cc34)C2)cn1` [Compound 19, (E)-3-(6-Aminopyridin-3-yl)-1-(8-(4-fluorophenyl)-6-(6-(morpholine-4-carbonyl)pyridazin-3-yl)-3,4-dihydrobenzofuro[2,3-c]pyridin-2(1H)-yl)prop-2-en-1-one], for which the “level of p-PAK4” value in data set [1] is listed as “superior to 4”. In addition, in data set [2], the “level of p-β-Catenin” value is given as “superior to 4”.
